The assay deals with p44/42 MAPK in pancreatic acini. The assay can be described thus: p44/42 MAPK activation (pT202/Y204 Western blot) in pancreatic acini. The format is cell-based. The settings on record: Rattus norvegicus, Cytochalasin D 10 µM or Paclitaxel 5 µM, 3 h, range. On the procedure:
Pancreatic acini preparations were obtained by collagenase digestion as previously described ([Bissonnette et al., 1984]; [Sato et al., 1989]; [Ramos-Alvarez and Jensen, 2018]). […] Isolated acini and CCK1-R/Panc-1 cells (M&M 2.2.1) were also preincubated with two SSH1 inhibitors, D3 (25 μM, 1 h) ([Li et al., 2015]) or SE (50 μM, 3 h for acini; 24 h for CCK1-R/Panc-1 cells) ([Lee et al., 2017]). After preincubation, 1 mL aliquots of dispersed acini were incubated at 37°C for 3–15 min with CCK-8 (0.3 nM or 100 nM), for 5–15 min with TPA (1 µM) or without stimulants, used as control. Cells were lysed in lysis buffer (50 mM Tris/HCl pH 7.5, 150 mM NaCl, 1% Triton X-100, 1% deoxycholate, 0.1% sodium azide, 1 mM EGTA, 0.4 mM EDTA, 0.2 mM sodium orthovanadate, 1 mM PMSF, and one protease inhibitor tablet per 10 mL). After sonication, lysates were centrifuged at 10,000×g for 15 min at 4°C and protein concentration was measured using the Bio-Rad protein assay reagent. Finally, cells were processed as below for Western blotting.
Western blotting and immunoprecipitation were performed as described previously ([Ramos-Alvarez and Jensen, 2018]). Whole cell lysates were subjected to SDS-PAGE using 4%–20% Tris–Glycine gels. […] The intensity of the protein bands was measured using GeneTools software from Syngene, which were assessed in the linear detection range. […]

The structures appear in SMILES notation. Where two headings read alike, the source gives them in different places.

For the molecule `CC(=O)O[C@H]1C(=O)[C@@]2(C)[C@H]([C@H](OC(=O)c3ccccc3)[C@]3(O)C[C@H](OC(=O)[C@H](O)[C@@H](NC(=O)c4ccccc4)c4ccccc4)C(C)=C1C3(C)C)[C@]1(OC(C)=O)CO[C@@H]1C[C@@H]2O` [Paclitaxel], the inhibition at 5 µM (CCK-8 0.3 and 100 nM 3 min, read-out: inhibition of CCK-8-mediated p42/44 phosphorylation) lay within 31 to 41%; the inhibition at 5 µM (TPA 1 µM 5 min, read-out: inhibition of TPA-mediated p42/44 phosphorylation) lay within 27 to 30%.

The record behind these values is article PMC10149936, “Cofilin activation in pancreatic acinar cells plays a pivotal convergent role for mediating CCK-stimulated enzyme secretion and growth” (Frontiers in Physiology, 2023).
